Assay results taken from US9670194B2 (Calitor Sciences, LLC, priority 2013, dated 2017).
Like-named read-outs stand apart in the source and are kept apart here.

Legend:
PI3K (p110δ/p85α) (h) = PI3K (p110δ/p85α) (h) (Homo sapiens (Human), UniProt O00329); assay: PI3K (p110δ/p85α) (h) non-radioactive HTRF kinase assay; format: biochemical
[1] = Compound stability in rat liver microsomes; format: in vitro ADME; conditions: pH 7.4; for half-life at 5 μM: rat liver microsomes 0.5 mg protein/mL, compound 5 μM, NADPH 1.0 mM, 37° C.; for CLint scaled at 5 μM: rat liver microsomes, in vivo CLint extrapolated
[2] = Compound stability in human liver microsomes; format: in vitro ADME; conditions: for half-life at 5 μM: human liver microsomes 0.5 mg protein/mL, compound 5 μM, NADPH 1.0 mM, 37° C.; for CLint scaled at 5 μM: human liver microsomes, in vivo CLint extrapolated
[3] = Pharmacokinetics after intravenous and oral administration in rats; format: in vivo, rat; conditions: for clearance (CL) / AUC(0-t) / half-life / Vd: iv dosing; for bioavailability / AUC(0-t) / half-life / Vd: rat, plasma; for bioavailability: oral dose generally 5 or 10 mg/kg; for Vd: read-out: Vss
PI3K (p110β/p85α) (h) = PI3K (p110β/p85α) (h) (Homo sapiens (Human), UniProt P42338); assay: PI3K (p110β/p85α) (h) non-radioactive HTRF kinase assay; format: biochemical
PI3K (p110β/p85α) (h), sequence (P42338 whole entry): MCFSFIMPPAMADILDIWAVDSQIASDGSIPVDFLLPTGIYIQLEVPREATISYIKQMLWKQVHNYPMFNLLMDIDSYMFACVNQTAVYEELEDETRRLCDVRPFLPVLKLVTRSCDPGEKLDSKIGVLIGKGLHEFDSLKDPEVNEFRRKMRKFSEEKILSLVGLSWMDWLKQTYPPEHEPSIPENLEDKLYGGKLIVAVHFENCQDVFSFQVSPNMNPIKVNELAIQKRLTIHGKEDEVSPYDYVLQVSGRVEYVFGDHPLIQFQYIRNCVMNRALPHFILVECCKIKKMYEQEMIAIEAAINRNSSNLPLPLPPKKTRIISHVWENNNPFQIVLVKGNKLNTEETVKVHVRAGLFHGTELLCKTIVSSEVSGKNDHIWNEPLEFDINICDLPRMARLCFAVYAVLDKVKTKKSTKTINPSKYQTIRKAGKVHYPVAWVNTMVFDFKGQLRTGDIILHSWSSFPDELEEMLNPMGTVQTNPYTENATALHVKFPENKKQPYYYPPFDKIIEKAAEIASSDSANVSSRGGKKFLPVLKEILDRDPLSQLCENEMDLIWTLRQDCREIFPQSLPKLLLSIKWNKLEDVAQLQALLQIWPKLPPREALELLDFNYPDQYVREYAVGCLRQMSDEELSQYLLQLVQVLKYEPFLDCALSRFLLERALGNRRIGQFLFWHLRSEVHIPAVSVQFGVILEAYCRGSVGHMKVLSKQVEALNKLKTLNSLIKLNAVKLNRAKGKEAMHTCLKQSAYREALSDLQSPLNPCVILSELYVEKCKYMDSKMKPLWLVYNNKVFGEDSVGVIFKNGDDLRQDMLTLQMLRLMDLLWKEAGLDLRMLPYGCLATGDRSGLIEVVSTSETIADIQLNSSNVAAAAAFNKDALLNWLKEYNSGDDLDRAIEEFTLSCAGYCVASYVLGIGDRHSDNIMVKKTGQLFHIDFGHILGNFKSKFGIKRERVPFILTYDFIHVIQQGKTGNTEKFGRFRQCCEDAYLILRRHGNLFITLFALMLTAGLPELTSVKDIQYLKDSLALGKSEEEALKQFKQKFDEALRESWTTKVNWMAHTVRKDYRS
PI3K (p110β/p85α) (h), sequence (P27986 whole entry partner): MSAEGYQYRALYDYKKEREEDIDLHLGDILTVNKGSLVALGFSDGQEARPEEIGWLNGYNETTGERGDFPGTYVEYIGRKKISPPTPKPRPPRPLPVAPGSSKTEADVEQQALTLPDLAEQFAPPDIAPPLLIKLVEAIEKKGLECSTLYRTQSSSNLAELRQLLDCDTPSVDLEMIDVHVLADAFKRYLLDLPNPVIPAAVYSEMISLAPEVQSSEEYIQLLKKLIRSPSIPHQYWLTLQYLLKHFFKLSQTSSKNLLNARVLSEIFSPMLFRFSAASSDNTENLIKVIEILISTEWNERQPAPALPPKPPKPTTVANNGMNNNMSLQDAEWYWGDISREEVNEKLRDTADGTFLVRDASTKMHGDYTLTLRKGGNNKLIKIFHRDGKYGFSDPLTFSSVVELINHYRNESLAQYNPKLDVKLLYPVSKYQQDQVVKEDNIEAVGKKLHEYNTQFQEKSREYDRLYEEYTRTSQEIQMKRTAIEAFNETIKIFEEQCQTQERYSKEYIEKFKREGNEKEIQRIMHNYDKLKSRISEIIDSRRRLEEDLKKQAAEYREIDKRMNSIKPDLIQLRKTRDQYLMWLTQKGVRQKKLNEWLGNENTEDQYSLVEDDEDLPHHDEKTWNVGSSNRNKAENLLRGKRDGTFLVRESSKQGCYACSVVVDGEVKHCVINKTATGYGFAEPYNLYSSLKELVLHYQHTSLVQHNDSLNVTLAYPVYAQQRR

PI3K (p110δ/p85α) (h), sequence (O00329 whole entry): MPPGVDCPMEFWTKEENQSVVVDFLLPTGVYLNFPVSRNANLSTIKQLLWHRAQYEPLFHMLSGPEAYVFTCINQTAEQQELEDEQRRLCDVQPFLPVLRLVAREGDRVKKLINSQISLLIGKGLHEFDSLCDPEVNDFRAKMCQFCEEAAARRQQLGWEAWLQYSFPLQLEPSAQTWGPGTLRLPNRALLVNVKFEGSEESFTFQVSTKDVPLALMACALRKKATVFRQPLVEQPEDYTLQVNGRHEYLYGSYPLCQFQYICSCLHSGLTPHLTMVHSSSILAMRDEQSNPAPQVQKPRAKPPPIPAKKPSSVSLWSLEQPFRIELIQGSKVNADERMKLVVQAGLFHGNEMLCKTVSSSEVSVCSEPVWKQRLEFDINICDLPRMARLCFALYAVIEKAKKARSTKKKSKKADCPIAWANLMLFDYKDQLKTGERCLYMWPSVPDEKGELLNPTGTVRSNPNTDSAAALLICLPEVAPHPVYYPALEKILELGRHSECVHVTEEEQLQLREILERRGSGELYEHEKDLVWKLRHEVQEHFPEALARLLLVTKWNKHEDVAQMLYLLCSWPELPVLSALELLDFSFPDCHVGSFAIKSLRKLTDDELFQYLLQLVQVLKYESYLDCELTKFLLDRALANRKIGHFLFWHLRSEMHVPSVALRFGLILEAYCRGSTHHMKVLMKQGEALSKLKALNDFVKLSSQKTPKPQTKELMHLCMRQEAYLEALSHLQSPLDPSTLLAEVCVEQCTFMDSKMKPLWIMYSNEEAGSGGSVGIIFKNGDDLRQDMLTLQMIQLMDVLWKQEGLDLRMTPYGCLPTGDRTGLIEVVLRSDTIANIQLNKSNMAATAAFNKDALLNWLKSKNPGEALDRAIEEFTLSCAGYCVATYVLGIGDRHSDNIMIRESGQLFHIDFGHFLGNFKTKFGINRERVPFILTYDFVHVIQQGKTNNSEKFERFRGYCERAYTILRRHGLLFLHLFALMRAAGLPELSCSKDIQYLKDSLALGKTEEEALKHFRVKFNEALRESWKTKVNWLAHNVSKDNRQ
PI3K (p110δ/p85α) (h), sequence (P27986 whole entry partner): as the sequence (P27986 whole entry partner) above

| SMILES | IC50 (PI3K (p110δ/p85α) (h)) | half-life at 5 μM [1] | CLint scaled at 5 μM [1] | half-life at 5 μM [2] | CLint scaled at 5 μM [2] | clearance (CL) ([3]; dose 1 mg/kg) | bioavailability ([3]; iv dose 1 mg/kg) | AUC(0-t) ([3]; dose 1 mg/kg) | half-life ([3]; dose 1 mg/kg) | Vd ([3]; dose 1 mg/kg) | IC50 (PI3K (p110β/p85α) (h)) | clearance (CL) ([3]; dose 0.5 mg/kg) | bioavailability ([3]; iv dose 0.5 mg/kg) | AUC(0-t) ([3]; dose 0.5 mg/kg) | half-life ([3]; dose 0.5 mg/kg) | Vd ([3]; dose 0.5 mg/kg) |
| --- | --- | --- | --- | --- | --- | --- | --- | --- | --- | --- | --- | --- | --- | --- | --- | --- |
| CC[C@H](Nc1ncnc(N)c1-c1ncc(C)o1)c1nc2cccc(Cl)c2c(=O)n1C1CC1 [Ex. 7, (S)-2-(1-((6-amino-5-(5-methyloxazol-2-yl)pyrimidin-4-yl)amino)propyl)-5-chloro-3-cyclopropylquinazolin-4(3H)-one] | 246 nM | 10.5 min | 237 mL/min/kg | 19.4 min | 89.7 mL/min/kg | 54.8 mL/min/kg | 45.7% | 300 ng·h/mL | 79.8 min | 5.82 L/kg | 2780 nM | – | – | – | – | – |
| CC[C@H](Nc1ncnc(N)c1-c1ccccn1)c1nc2cccc(Cl)c2c(=O)n1C1CC1 [Ex. 11, (S)-2-(1-((6-amino-5-(pyridin-2-yl)pyrimidin-4-yl)amino)propyl)-5-chloro-3-cyclopropylquinazolin-4(3H)-one] | 1470 nM | 62.2 min | 39.9 mL/min/kg | 78.2 min | 22.2 mL/min/kg | – | – | – | – | – | > 3000 nM | 4.83 mL/min/kg | 38.5% | 1690 ng·h/mL | 157 min | 0.59 L/kg |
| CC(C)c1nc(-c2c(N)ncnc2N[C@@H](C)c2nc3cccc(Cl)c3c(=O)n2C2CC2)no1 [Ex. 59, (S)-2-(1-((6-amino-5-(5-isopropyl-1,2,4-oxadiazol-3-yl)pyrimidin-4-yl)amino)ethyl)-5-chloro-3-cyclopropylquinazolin-4(3H)-one] | 20 nM | 3.36 min | 739 mL/min/kg | 6.66 min | 261 mL/min/kg | 73.7 mL/min/kg | 3.27% | 229 ng·h/mL | 115 min | 7.32 L/kg | – | – | – | – | – | – |
| CC(C)c1noc(-c2c(N)ncnc2N[C@@H](C)c2nc3cccc(Cl)c3c(=O)n2C2CC2)n1 [Ex. 57, (S)-2-(1-((6-amino-5-(3-isopropyl-1,2,4-oxadiazol-5-yl)pyrimidin-4-yl)amino)-ethyl)-5-chloro-3-cyclopropylquinazolin-4(3H)-one] | 6 nM | 10.4 min | 239 mL/min/kg | 18.2 min | 95.2 mL/min/kg | 83 mL/min/kg | 12.1% | 199 ng·h/mL | 59.4 min | 5.84 L/kg | – | – | – | – | – | – |
| CC[C@H](Nc1ncnc(N)c1-c1ncn(C)n1)c1nc2cccc(F)c2c(=O)n1C1CC1 [Ex. 26, (S)-2-(1-((6-amino-5-(1-methyl-1H-1,2,4-triazol-3-yl)pyrimidin-4-yl)amino)propyl)-3-cyclopropyl-5-fluoroquinazolin-4(3H)-one] | 2290 nM | 66.3 min | 37.4 mL/min/kg | 74.5 min | 33.4 mL/min/kg | 37 mL/min/kg | 45.8% | 443 ng·h/mL | 128 min | 2.5 L/kg | – | – | – | – | – | – |
| CC[C@@H](Nc1ncnc(N)c1-c1nc(C)no1)c1nc2cccc(Cl)c2c(=O)n1C1CC1 [Ex. 19, (R)-2-(1-((6-amino-5-(3-methyl-1,2,4-oxadiazol-5-yl)pyrimidin-4-yl)amino)propyl)-5-chloro-3-cyclopropylquinazolin-4(3H)-one] | > 3000 nM | 19.7 min | 126 mL/min/kg | 52.4 min | 47.4 mL/min/kg | 127 mL/min/kg | 5.49% | 132 ng·h/mL | 51.6 min | 6.98 L/kg | – | – | – | – | – | – |
| CC[C@H](Nc1ncnc(N)c1-c1noc(C)n1)c1nc2cccc(Cl)c2c(=O)n1C1CC1 [Ex. 12, (S)-2-(1-((6-amino-5-(5-methyl-1,2,4-oxadiazol-3-yl)pyrimidin-4-yl)amino)-propyl)-5-chloro-3-cyclopropylquinazolin-4(3H)-one] | 48 nM | 31 min | 80.2 mL/min/kg | 20.6 min | 84.6 mL/min/kg | 31.8 mL/min/kg | 48.9% | 518 ng·h/mL | 76.8 min | 3.14 L/kg | – | – | – | – | – | – |
| Cc1nc(-c2c(N)ncnc2N[C@@H](C)c2nc3cccc(Cl)c3c(=O)n2C2CC2)no1 [Ex. 33, (S)-2-(1-((6-amino-5-(5-methyl-1,2,4-oxadiazol-3-yl)pyrimidin-4-yl)amino)-ethyl)-5-chloro-3-cyclopropylquinazolin-4(3H)-one] | 67 nM | 8.68 min | 286 mL/min/kg | 11.9 min | 146 mL/min/kg | 65.5 mL/min/kg | 5.59% | 241 ng·h/mL | 432 min | 14.3 L/kg | – | – | – | – | – | – |
| CC[C@H](Nc1ncnc(N)c1-c1nnc(C)o1)c1nc2cccc(C)c2c(=O)n1C1CC1 [Ex. 20, (S)-2-(1-((6-amino-5-(5-methyl-1,3,4-oxadiazol-2-yl)pyrimidin-4-yl)amino)propyl)-3-cyclopropyl-5-methylquinazolin-4(3H)-one] | 49 nM | 9.27 min | 268 mL/min/kg | 9.96 min | 249 mL/min/kg | 77.3 mL/min/kg | 79% | 215 ng·h/mL | 63 min | 6.35 L/kg | – | – | – | – | – | – |
| CC[C@H](Nc1ncnc(N)c1-c1nc(C)no1)c1nc2ccccc2c(=O)n1-c1ccccc1F [Ex. 22, (S)-2-(1-((6-amino-5-(3-methyl-1,2,4-oxadiazol-5-yl)pyrimidin-4-yl)amino)propyl)-3-(2-fluorophenyl)quinazolin-4(3H)-one] | 26 nM | 7.95 min | 312 mL/min/kg | 15.3 min | 163 mL/min/kg | 159 mL/min/kg | 29.8% | 104 ng·h/mL | 51 min | 9.46 L/kg | – | – | – | – | – | – |
| CC[C@H](Nc1ncnc(N)c1-c1ccn(C)n1)c1nc2cccc(Cl)c2c(=O)n1C1CC1 [Ex. 51, (S)-2-(1-((6-amino-5-(1-methyl-1H-pyrazol-3-yl)pyrimidin-4-yl)amino)propyl)-5-chloro-3-cyclopropylquinazolin-4(3H)-one] | 135 nM | 18.2 min | 136 mL/min/kg | 22.6 min | 76.9 mL/min/kg | 27.3 mL/min/kg | 59.8% | 609 ng·h/mL | 115 min | 1.64 L/kg | – | – | – | – | – | – |
| CC[C@H](Nc1ncnc(N)c1-c1nc(C)no1)c1nc2cccc(F)c2c(=O)n1C1CC1 [Ex. 23, (S)-2-(1-((6-amino-5-(3-methyl-1,2,4-oxadiazol-5-yl)pyrimidin-4-yl)amino)-propyl)-3-cyclopropyl-5-fluoroquinazolin-4(3H)-one] | 52 nM | 56.9 min | 43.7 mL/min/kg | 44.3 min | 56 mL/min/kg | 71.3 mL/min/kg | 34.1% | 237 ng·h/mL | 56.4 min | 5.02 L/kg | – | – | – | – | – | – |
| CC[C@H](Nc1ncnc(N)c1-c1nc(C)no1)c1nc2cccc(C)c2c(=O)n1-c1ccccc1C [Ex. 27, (S)-2-(1-((6-amino-5-(3-methyl-1,2,4-oxadiazol-5-yl)pyrimidin-4-yl)amino)-propyl)-5-methyl-3-(o-tolyl)quinazolin-4(3H)-one] | 13 nM | 16.3 min | 152 mL/min/kg | 14.9 min | 167 mL/min/kg | 61.7 mL/min/kg | 49.8% | 263 ng·h/mL | 111 min | 6.11 L/kg | – | – | – | – | – | – |
